Tests used:
[1] = test system: 4T1 murine breast cancer cells; assay: Example S: in vitro anticancer screen, 4T1 cells, Wst1; assay type: cell-based, mouse; settings: Mus musculus, 4T1, 18 h, 18 hr, Wst1; for viability at 1 µM: read-out: 4T1 1 μM, percent of cancer cell survival relative to vehicle treated cells; for viability at 5 µM: read-out: 4T1 5 μM, percent of cancer cell survival relative to vehicle treated cells
Protocol: Anticancer activity against 4T1 murine breast cancer cells cancer cells was assessed in vitro by seeding 1×10^4 cells/well in flat bottom culture plates, then treating with selected 1 μM or 5 μM concentrations of compounds for 18 hr after plating. Then 10 μL of Wst1 dye reagent, a tetrazolium dye indicator for […], was added/well and incubated approximately 2 hr before being assayed on the Biotek EL800 Universal microplate reader (450 nm, reference 630 nm).
Numerical values in the Table 37 represent percent of cancer cell survival relative to vehicle treated cells at the indicated concentrations, with values under 100 indicating anticancer cytotoxic activity at the drugs concentrations tested.

THP-1 cells = assay: Example D: LPS-triggered THP-1 cell death assay, acute/5-hour and chronic/48-hour; assay type: cell-based, Human; settings: 10 ng/ml LPS, 0.1 μM test compound, 48 hours
Protocol: Compounds of the invention were tested at 0.1 μM versus AC in the LPS-triggered THP-1 cell death assay. Both acute/5-hour and chronic/48-hour phases of cell death were assessed. Compounds were screened in batches with DMSO as the negative control and AC as the high activity control.

[2] = test system: PC-3 prostate cancer cells; assay: Example T: sensitisation of PC-3 cells to doxorubicin, oxaliplatin, paclitaxel or vincristine, Wst1; assay type: cell-based, human; settings: PC-3 cells, 72 hours

| Structure (SMILES) | viability at 1 µM [1] [%] | viability at 5 µM [1] [%] | Viable cell percent change, Chronic/48-hour, Mean (THP-1 cells) [%] | further results |
| --- | --- | --- | --- | --- |
| COCCNc1ccnc2ccccc12 [BR, N-(2-Methoxyethyl)quinolin-4-amine] | 106 | 122 |  |  |
| c1ccc2c(NCCN3CCOCC3)ccnc2c1 [BS, N-[2-(Morpholin-4-yl)ethyl]quinolin-4-amine] | 105 | 117 |  |  |
| O=C(NCCCNc1ccnc2ccccc12)c1ccccc1 [BT, N-[3-(Quinolin-4-ylamino)propyl]benzamide] | 119 | 121 | 66.98 |  |
| CCN(CC)CCNC(=O)c1ccc(Nc2ccnc3ccccc23)cc1 [BW, N-(2-Diethylaminoethyl)-4-(quinolin-4-ylamino)benzamide] | 123 | 236 | 36.08 |  |
| CN(C)c1ccc(CNc2ccnc3ccccc23)cc1 [BX, N-(4-Dimethylaminobenzyl)quinolin-4-amine] | 116 | 116 | 25.10 |  |
| c1ccc2c(NCc3ccncc3)ccnc2c1 [BZ, N-(Pyridin-4-ylmethyl)quinolin-4-amine] | 122 | 260 | 30.72 |  |
| CCCCCCOCCCCCCCC(=O)NCc1ccncc1 [CA, N-(Pyridin-4-ylmethyl)-8-(hexyloxy)octanamide] | 108 | 109 |  |  |
| CCCCCCOCCCCCCCC(=O)Nc1ccc2ncccc2c1 [CB, N-(Quinolin-6-yl)-8-(hexyloxy)octanamide] | 105 | 102 | 10.62 |  |
| CCCCCCOCCCCCCCCn1cnc2ccccc21 [CC, 1-[8-(Hexyloxy)octyl]-1H-benzimidazole] | 110 | 99.5 |  |  |
| CCCCCCCCCCOc1cccc(CNc2ncnc3ccccc23)c1 [CG, N-[3-(Decyloxy)benzyl]quinazolin-4-amine] |  |  | 54.66 |  |
| CCCCCCOCCCCCCCCNc1ccnc2c(C(F)(F)F)cccc12 [CN, N-[8-(Hexyloxy)octyl]-8-(trifluoromethyl)quinolin-4-amine] | 32.5 | 18.8 | 3.70 |  |
| c1ccc(-c2ccc(Nc3ccnc4ccccc34)cc2)cc1 [DC, N-(Biphenyl-4-yl)quinolin-4-amine] | 110 | 96.7 | 87.66 |  |
| CCCCCC(=O)Nc1ccc(Nc2ccnc3ccccc23)cc1 [DG, N-[4-(Quinolin-4-ylamino)phenyl]hexanamide] | 105 | 94.7 | 37.90 |  |
| CCCCCC(=O)Nc1cccc(Nc2ccnc3ccccc23)c1 [DH, N-[3-(Quinolin-4-ylamino)phenyl]hexanamide] | 96.6 | 112 | 50.89 |  |
| COc1ccc(Nc2ccnc3ccccc23)cc1 [DI, N-(4-Methoxyphenyl)quinolin-4-amine] | 108 | 126 | 82.24 |  |
| CCCCOc1ccc(Nc2ccnc3ccccc23)cc1 [DK, N-(4-Butoxyphenyl)quinolin-4-amine] | 102 | 87.6 | 73.60 |  |
| c1ccc(CNc2ccnc3ccccc23)cc1 [DQ, N-Benzylquinolin-4-amine] | 99.5 | 122 | 32.31 |  |
| CCCCCCCCCCOc1ccc(CNc2ccnc3ccccc23)cc1 [DT, N-[4-(Decyloxy)benzyl]quinolin-4-amine] |  |  | 16.12 |  |

| Structure (SMILES) | viability at 1 µM [1] [%] | viability at 5 µM [1] [%] | Viable cell percent change, Chronic/48-hour, Mean (THP-1 cells) [%] | further results |
| --- | --- | --- | --- | --- |
| c1ccc(CCOc2cccc(CNc3ccnc4ccccc34)c2)cc1 [DV, N-(3-Phenethoxybenzyl)quinolin-4-amine] |  |  | 24.69 | viability at 0.4 µM ([2]; Homo sapiens, compound 0.4 μM alone, Wst1, vehicle = 100, read-out: No Chemo: percent cell survival): 31.6%; Doxorubicin 3.5 μM: percent cell survival ([2]; compound 0.4 μM + doxorubicin 3.5 μM, chemotherapy agent alone normalized to 100%): 76.7%; Oxaliplatin 100 μM: percent cell survival ([2]; compound 0.4 μM + oxaliplatin 100 μM, chemotherapy agent alone normalized to 100%): 61.9%; Paclitaxel 50 μM: percent cell survival ([2]; compound 0.4 μM + paclitaxel 50 μM, chemotherapy agent alone normalized to 100%): 23.3%; Vincristine 100 nM: percent cell survival ([2]; compound 0.4 μM + vincristine 100 nM, chemotherapy agent alone normalized to 100%): 32.2% |
| O=C(NCCCCNc1ccnc2ccccc12)c1ccccc1 [DW, N-[4-(Quinolin-4-ylamino)butyl]benzamide] | 102 | 194 | 73.97 |  |
| O=C(NCCCCCCNc1ccnc2ccccc12)c1ccccc1 [DX, N-[6-(Quinolin-4-ylamino)hexyl]benzamide] | 112 | 105 | 59.95 |  |
| CCCCCCOc1ccccc1C(=O)NCCCCNc1ccnc2ccccc12 [ED, 2-(Hexyloxy)-N-[4-(quinolin-4-ylamino)butyl]benzamide] |  |  | 81.40 |  |
| c1ccc(CNc2ccnc3ccccc23)nc1 [EH, N-(Pyridin-2-ylmethyl)quinolin-4-amine] | 116 | 128 | 32.85 |  |
| CCCCCCOCCCCCCCCNc1ccc2ncccc2c1 [EK, N-[8-(Hexyloxy)octyl]quinolin-6-amine] | 116 | 114 | 15.50 |  |
| CCCCCCOCCCCCCCCNc1cccc2cccnc12 [EM, N-[8-(Hexyloxy)octyl]quinolin-8-amine] | 106 | 93 |  |  |
| CCCCCCOCCCCCCCCNc1cc(C(F)(F)F)nc2ccccc12 [EN, N-[8-(Hexyloxy)octyl]-2-(trifluoromethyl)quinolin-4-amine] | 93.3 | 89.8 | 6.64 |  |
| CCCCC(OC(C)=O)c1nc2c(N)nc3ccccc3c2n1CC(C)C (stereo not shown) [FC, 1-(4-Amino-1-isobutyl-1H-imidazo[4,5-c]quinolin-2-yl)pentyl acetate] | 115 | 123 |  |  |
| CCCCCCCCCCCCCCCCn1cnc2cnccc21 [FM, 1-Hexadecyl-1H-imidazo[4,5-c]pyridine] |  |  | 9.74 |  |
| COCCCCCCCCNc1ccncc1 [FN, N-(8-Methoxyoctyl)pyridin-4-amine] | 92.9 | 79.4 | 3.54 |  |
| CCCCCCOCCCCCCCCNc1cccnc1 [FO, N-[8-(Hexyloxy)octyl]pyridin-3-amine] | 106 | 146 | 20.18 |  |
| CCCCCCOCCCCCCCCNc1ccccn1 [FP, N-[8-(Hexyloxy)octyl]pyridin-2-amine] | 116 | 116 | 30.44 |  |
| CCCCCCOCCCCCCCCNc1ncccn1 [FQ] | 110 | 98 | 25.62 |  |
| CCCCCCOCCCCCCCCNc1nccc2ccccc12 [FS, N-[8-(Hexyloxy)octyl]isoquinolin-1-amine] | 122 | 107 |  |  |
| CCCCCCOCCCCCCCCNc1cnc2ccccc2n1 [FU, N-[8-(Hexyloxy)octyl]quinoxalin-2-amine] | 118 | 106 |  |  |
| CCCCCCOCCCCCCCCNc1cnccn1 [FV, N-[8-(Hexyloxy)octyl]pyrazin-2-amine] | 104 | 101 | 17.51 |  |
| CCCCCCOCCCCCCCCn1cnc2cccnc21 [FX, 3-[8-(Hexyloxy)octyl]-3H-imidazo[4,5-b]pyridine] | 112 | 96.6 |  |  |

Reference: patent US20250034139A1, “AMINE COMPOUNDS HAVING ANTI-INFLAMMATORY, ANTIFUNGAL, ANTIPARASITIC, AND ANTICANCER ACTIVITY” (PHARMA CINQ, LLC, priority 2013, published 2025)
